Data from patent US10508085B2, “Compounds and methods for IDO and TDO modulation, and indications therefor” (Plexxikon Inc., priority 2016, dated 2019).

Assays:
[1] = target: T1, Human Indoleamine 2,3-dioxygenase (IDO) (Homo sapiens, UniProt P14902); assay: Human IDO enzymatic assay (kynurenine level); assay type: biochemical; conditions: 6 nM IDO, 10 μM L-Trp; geometric mean; read-out: IDO1 GMean: IC50 (μM) (Biochemical Assay)
T1 construct: His tag (N); made in house; host or cells: E. coli
Method in brief: (§1)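 N-His human IDO (6 nM, 10 μM L-Trp, 5 μM methylene blue, 20 min) or TDO (1 nM, 350 μM L-Trp, 0.4 μM methylene blue, 70 min) run at room temp in pH 6.5 phosphate with ascorbate, catalase, Tween 20. TCA stop, 30 min 50 °C converts N-formylkynurenine to kynurenine; IC50 by nonlinear regression.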

[2] = target: T2, human TDO (TDO-expressing HEK293 cells) (Homo sapiens, UniProt P48775); assay: Cell based kynurenine assay, TDO-expressing HEK293 cell clones; conditions: TDO-expressing HEK293 cells, 24 hours incubation; geometric mean; read-out: HEK293 TDO Kynurenine GMean IC50 (μM) (Cellular Assay)
T2 construct: expressed in transfected cells
Method in brief: (§2)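 HEK293 clones stably expressing human IDO1 or human TDO (CMV promoter), 2.5×10^4 cells/well, given serial compound dilutions for 24 h. Kynurenine measured in supernatant; inhibition relative to cell/0.2% DMSO and media-only controls. IC50 by nonlinear regression.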

[3] = target: T3, human IDO (IDO1-expressing HEK293 cells) (Homo sapiens, UniProt P14902); assay: Cell based kynurenine assay, IDO1-expressing HEK293 cell clones; conditions: IDO1-expressing HEK293 cells, 24 hours incubation; geometric mean; read-out: HEK293 IDO1 Kynurenine GMean IC50 (μM) (Cellular Assay)
T3 construct: expressed in transfected cells
Method in brief: as §2

[4] = target: T4, Human Tryptophan 2,3-dioxygenase (TDO) (Homo sapiens, UniProt P48775); assay: Human TDO enzymatic assay (kynurenine level); assay type: biochemical; conditions: 1 nM TDO, 350 μM L-Trp; geometric mean; read-out: TDO GMean: IC50 (μM) (Biochemical Assay)
T4 construct: His tag (N); made in house; host or cells: E. coli
Method in brief: as §1

T1 sequence (P14902 whole entry): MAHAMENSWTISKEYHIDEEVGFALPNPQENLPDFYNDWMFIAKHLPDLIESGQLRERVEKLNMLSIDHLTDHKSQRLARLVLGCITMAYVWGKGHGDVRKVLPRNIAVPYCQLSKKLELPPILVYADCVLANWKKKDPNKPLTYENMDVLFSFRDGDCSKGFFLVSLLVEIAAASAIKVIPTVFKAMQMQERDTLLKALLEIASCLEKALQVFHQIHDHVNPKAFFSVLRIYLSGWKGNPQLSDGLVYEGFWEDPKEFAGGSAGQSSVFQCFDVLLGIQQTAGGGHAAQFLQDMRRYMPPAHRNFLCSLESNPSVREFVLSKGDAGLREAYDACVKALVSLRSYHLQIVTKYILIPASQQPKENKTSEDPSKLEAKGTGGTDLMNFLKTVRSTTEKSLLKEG
T3 sequence (P14902 whole entry): as above
T4 sequence (P48775 whole entry): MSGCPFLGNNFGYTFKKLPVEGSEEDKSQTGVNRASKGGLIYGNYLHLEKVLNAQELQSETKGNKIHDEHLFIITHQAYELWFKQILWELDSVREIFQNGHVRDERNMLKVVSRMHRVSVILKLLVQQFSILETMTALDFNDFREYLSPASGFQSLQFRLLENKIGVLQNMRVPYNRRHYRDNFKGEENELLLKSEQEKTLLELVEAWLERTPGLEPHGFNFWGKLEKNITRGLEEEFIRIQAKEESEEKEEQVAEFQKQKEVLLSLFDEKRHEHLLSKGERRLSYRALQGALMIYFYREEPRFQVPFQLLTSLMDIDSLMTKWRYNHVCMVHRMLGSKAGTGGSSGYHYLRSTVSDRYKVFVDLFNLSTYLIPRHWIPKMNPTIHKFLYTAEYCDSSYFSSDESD
T2 sequence (P48775 whole entry): as above

SMILES | IC50 [1] [µM] | IC50 [2] [µM] | IC50 [3] [µM] | IC50 [4] [µM]
CS(=O)(=O)N1C2CCC1CN(c1c(F)c(Cl)cc3cn[nH]c13)C2 [Compound P-0096, 5-chloro-6-fluoro-7-(8-(methylsulfonyl)-3,8-diazabicyclo[3.2.1]octan-3-yl)-1H-indazole] | 0.0001 to 10 | 0.0001 to 10 | > 10 | 0.0001 to 10
CC1(C)CN(c2cc(Cl)c(F)c3cn[nH]c23)CCN1S(C)(=O)=O [Compound P-0097, 5-chloro-7-(3,3-dimethyl-4-(methylsulfonyl)piperazin-1-yl)-4-fluoro-1H-indazole] | 0.0001 to 10 | 0.0001 to 10 | 0.0001 to 10 | 0.0001 to 10
CC1(C(O)c2c(Cl)ccn3cncc23)CCCCC1 (stereo not shown) [Compound P-0098, (7-chloroimidazo[1,5-a]pyridin-8-yl)(1-methylcyclohexyl)methanol] | 0.0001 to 10 | > 10 | 0.0001 to 10 | 0.0001 to 10
CC1(C(O)c2c3c(cc4cn[nH]c24)CCC3)CCCCC1 (stereo not shown) [Compound P-0099, (1-methylcyclohexyl)(1,5,6,7-tetrahydrocyclopenta[f]indazol-8-yl)methanol] | 0.0001 to 10 | 0.0001 to 10 | 0.0001 to 10 | 0.0001 to 10
OC1(c2cc(Cl)cc3cn[nH]c23)CC2(C1)[C@H]1C[C@@H]3C[C@@H](C[C@H]2C3)C1 (stereo partly drawn) [Compound P-0100, (1R,5S)-3′-(5-chloro-1H-indazol-7-yl)spiro[adamantane-2,1′-cyclobutan]-3′-ol] | 0.0001 to 10 | 0.0001 to 10 | 0.0001 to 10 | 0.0001 to 10
N#CC1CC=C(c2cc(Cl)cc3cn[nH]c23)CC1 (stereo not drawn) [Compound P-0105, 4-(5-chloro-1H-indazol-7-yl)cyclohex-3-ene-l-carbonitrile] | 0.0001 to 10 | 0.0001 to 10 | 0.0001 to 10 | 0.0001 to 10
O=C1NCCC12CCN(c1cc(Cl)cc3cn[nH]c13)CC2 [Compound P-0111, 8-(5-chloro-1H-indazol-7-yl)-2,8-diazaspiro[4.5]decan-l-one] | 0.0001 to 10 | 0.0001 to 10 | 0.0001 to 10 | 0.0001 to 10
CC1(C(O)c2c(F)c(Cl)c(F)c3cn[nH]c23)CC(F)(F)C1 (stereo not shown) [Compound P-0112, (5-chloro-4,6-difluoro-1H-indazol-7-yl)(3,3-difluoro-1-methylcyclobutyl)methanol] | 0.0001 to 10 | 0.0001 to 10 | 0.0001 to 10 | 0.0001 to 10
OC1(c2cc(Cl)cc3cn[nH]c23)CC2(C1)C1CC3CC(C1)CC2C3 (stereo not shown) [Compound P-0113, (1r,3r,5r,7r)-3′-(5-chloro-1H-indazol-7-yl)spiro[adamantane-2,1′-cyclobutan]-3′-ol] | 0.0001 to 10 | 0.0001 to 10 | 0.0001 to 10 | 0.0001 to 10
CC1(C(O)c2c(F)c(Cl)cc3cn[nH]c23)CC(F)(F)C1 (stereo not shown) [Compound P-0114, (5-chloro-6-fluoro-1H-indazol-7-yl)(3,3-difluoro-1-methylcyclobutyl)methanol] | 0.0001 to 10 | 0.0001 to 10 | 0.0001 to 10 | 0.0001 to 10
COc1cc(C(O)C2(C)CCCCC2)c2[nH]ncc2c1 (stereo not shown) [Compound P-0115, (5-methoxy-1H-indazol-7-yl)(1-methylcyclohexyl)methanol] | 0.0001 to 10 | 0.0001 to 10 | 0.0001 to 10 | 0.0001 to 10
OC(c1cc(Cl)cc2cn[nH]c12)C1CCC1 (stereo not shown) [Compound P-0116, (5-chloro-1H-indazol-7-yl)(cyclobutyl)methanol] | 0.0001 to 10 | 0.0001 to 10 | 0.0001 to 10 | 0.0001 to 10
CC1(C(O)c2cc(Cl)cc3cn[nH]c23)CCC1 (stereo not shown) [Compound P-0117, (5-chloro-1H-indazol-7-yl)(1-methylcyclobutyl)methanol] | 0.0001 to 10 | 0.0001 to 10 | 0.0001 to 10 | 0.0001 to 10
CC(C)(C1CCC1)C(O)c1cc(Cl)cc2cn[nH]c12 (stereo not shown) [Compound P-0118, 1-(5-chloro-1H-indazol-7-yl)-2-cyclobutyl-2-methylpropan-1-ol] | 0.0001 to 10 | 0.0001 to 10 | 0.0001 to 10 | 0.0001 to 10
OC(c1cc(Cl)cc2cn[nH]c12)C1(C(F)(F)F)CC1 (stereo not shown) [Compound P-0119, (5-chloro-1H-indazol-7-yl)(1-(trifluoromethyl)cyclopropyl)methanol] | 0.0001 to 10 | 0.0001 to 10 | 0.0001 to 10 | 0.0001 to 10
OC(c1cc(Cl)cc2cn[nH]c12)C1(C(F)(F)F)CCC1 (stereo not shown) [Compound P-0120, (5-chloro-1H-indazol-7-yl)(1-(trifluoromethyl)cyclobutyl)methanol] | 0.0001 to 10 | 0.0001 to 10 | 0.0001 to 10 | 0.0001 to 10

The next lines start with the values.

IC50 [1] [µM] | IC50 [2] [µM] | IC50 [3] [µM] | IC50 [4] [µM] | SMILES
0.0001 to 10 | > 10 | 0.0001 to 10 | 0.0001 to 10 | OC(c1cccc2cncn12)C12CC3CC(CC(C3)C1)C2 [Compound P-0087, ((1S,3s)-adamantan-1-yl)(imidazo[1,5-a]pyridin-5-yl)methanol]
0.0001 to 10 | > 10 | 0.0001 to 10 | 0.0001 to 10 | CC1(C(O)c2c(Cl)ccc3cncn23)CCCCC1 (stereo not shown) [Compound P-0088, (6-chloroimidazo[1,5-a]pyridin-5-yl)(1-methylcyclohexyl)methanol]
0.0001 to 10 | 0.0001 to 10 | 0.0001 to 10 | 0.0001 to 10 | CC1(C)CN(c2cc(Cl)cc3cn[nH]c23)CCN1S(C)(=O)=O [Compound P-0089, 5-chloro-7-(3,3-dimethyl-4-(methylsulfonyl)piperazin-1-yl)-1H-indazole]
0.0001 to 10 | 0.0001 to 10 | 0.0001 to 10 | 0.0001 to 10 | Cc1cc(N2CCN(S(C)(=O)=O)C(C)(C)C2)c2[nH]ncc2c1 [Compound P-0090, 7-(3,3-dimethyl-4-(methylsulfonyl)piperazin-1-yl)-5-methyl-1H-indazole]
0.0001 to 10 | 0.0001 to 10 | 0.0001 to 10 | 0.0001 to 10 | CC1(C)CN(c2cc(C(F)(F)F)cc3cn[nH]c23)CCN1S(C)(=O)=O [Compound P-0091]
0.0001 to 10 | 0.0001 to 10 | 0.0001 to 10 | 0.0001 to 10 | CC1(C)CN(c2c(F)c(Cl)cc3cn[nH]c23)CCN1S(C)(=O)=O [Compound P-0092, 5-chloro-7-(3,3-dimethyl-4-(methylsulfonyl)piperazin-1-yl)-6-fluoro-1H-indazole]
0.0001 to 10 | 0.0001 to 10 | 0.0001 to 10 | 0.0001 to 10 | CS(=O)(=O)N1C2CCC1CN(c1cc(Cl)cc3cn[nH]c13)C2 [Compound P-0093, 5-chloro-7-(8-(methylsulfonyl)-3,8-diazabicyclo[3.2.1]octan-3-yl)-1H-indazole]
0.0001 to 10 | 0.0001 to 10 | > 10 | 0.0001 to 10 | Cc1cc(N2CC3CCC(C2)N3S(C)(=O)=O)c2[nH]ncc2c1 [Compound P-0094, 5-methyl-7-(8-(methylsulfonyl)-3,8-diazabicyclo[3.2.1]octan-3-yl)-1H-indazole]
0.0001 to 10 | 0.0001 to 10 | 0.0001 to 10 | 0.0001 to 10 | CS(=O)(=O)N1C2CCC1CN(c1cc(C(F)(F)F)cc3cn[nH]c13)C2 [Compound P-0095, 7-(8-(methylsulfonyl)-3,8-diazabicyclo[3.2.1]octan-3-yl)-5-(trifluoromethyl)-1H-indazole]
